In US8326545B2, “System and method for displaying a pharmacokinetic and pharmacodynamic drug model” (General Electric Company, priority 2006, dated 2012):

Legend:
[1] = Age MAC Awake (variation on MAC that accounts for age and adjusts to consciousness); type: in vivo, patient
From the text: Interactions are labeled “unknown” when (CeAA>0.3%*AgeMACawake); wherein AGEMACawake is a variation on MAC that accounts for age and adjusts to consciousness.

[2] = minimum alveolar concentration; cited from earlier work

Structure (SMILES)	Age MAC Awake ([1]; age 18)	Age MAC Awake ([1]; donor one)	Age MAC Awake ([1]; donor two)	MAC [2]
FC(F)OC(F)C(F)(F)F (stereo not drawn) [Desflurane]	2.396	2.055	1.450	6
FC(F)OC(F)(F)C(F)Cl (stereo not drawn) [Enflurane]	0.679	0.582	0.411	1.7
FC(F)(F)C(Cl)Br (stereo not drawn) [Halothane]	0.481	0.413	0.291	0.75
FC(F)OC(Cl)C(F)(F)F (stereo not drawn) [Isoflurane]	0.459	0.394	0.278	1.15
[N-]=[N+]=O [Nitrous Oxide]	64.148	55.021	38.817	100
FCOC(C(F)(F)F)C(F)(F)F [Sevoflurane]	0.819	0.702	0.495	2.05
